# Values of other authors as cited in patent publication US20220251564A1, “p16INK4a INHIBITOR FOR PREVENTING OR TREATING HUNTINGTON'S DISEASE” (SORBONNE UNIVERSITE, priority 2019, published 2022).
# Test system: neurons
# Conditions: in vitro
structure (smiles),measurement,value
COc1cc([C@@H]2c3cc4c(cc3[C@@H](O[C@@H]3O[C@@H]5CO[C@@H](C)O[C@H]5[C@H](O)[C@H]3O)[C@H]3COC(=O)[C@H]23)OCO4)cc(OC)c1O [Etoposide],activation of neurons,activate neurons in vitro
